Tests used:
LZK = LZK (Homo sapiens (Human), UniProt O43283); test: LZK biochemical assay (TR-FRET, MKK7 phosphorylation)
Procedure: LZK assay is a biochemical assay format designed to screen for inhibitors of LZK. Enzymatic activity of LZK was measured by monitoring phosphorylation of the physiological substrate MKK7 (MAP2K7, Dual specificity mitogen-activated protein kinase kinase 7). Phosphorylation was detected by a TR-FRET system whereby His-tagged MKK7 was labeled by a XL665-labeled anti-His antibody (FRET acceptor, emission 665 nm). LZK phosphorylates MKK7 at T275/S277 which were detected by an Eu-labeled anti-phospho-MKK7 (T275/S277) antibody (FRET donor, excitation 340 nm). Phosphorylation of MKK7 results in an increased TR-FRET signal (Ratio XL665-channel/Eu-channel) and inhibition of enzymatic activity of LZK decreases the TR-FRET signal.
Assay Protocol for 384 low volume MTP format: 1 μl of test compound was pipetted into test plate; +5 μl LZK solution (10 nM LZK, catalytic domain, Carna Biosiences in assay buffer); +5 μl substrate solution (15 nM MKK7, LDB; 15 μM ATP, in assay buffer); 90 min incubation at RT; +5 μl detection mix (20 nM XL665-labeled anti-His antibody, Cisbio; 0.4 nM Eu-labeled anti-phospho-MKK7 (T275/S277), Cisbio/Millipore in detection buffer), 16 h incubation at 32° C.; endpoint measurement BMG (HTRF).
(§1) All indicated concentrations final concentrations.
Assay buffer (384 format): 50 mM Hepes pH 7.5, 10 mM MgCl2, 1 mM EGTA, 1 mM DTT, 0.01% Triton X-100, 0.01% BSA, 1:500 Smart Block.
(§2) Detection buffer: 25 mM Tris/HCl pH 7.5, 100 mM EDTA, 100 mM NaCl, 200 mM KF, 0.01% Tween 20, 1:500 Smart Block.

DLK = DLK (Homo sapiens (Human), UniProt Q12852); test: DLK biochemical assay (TR-FRET, MKK7 phosphorylation)
Procedure: DLK assay is a biochemical assay format designed to screen for inhibitors of DLK. Enzymatic activity of DLK was measured by monitoring phosphorylation of the physiological substrate MKK7 (MAP2K7, Dual specificity mitogen-activated protein kinase kinase 7). Phosphorylation was detected by a TR-FRET system whereby His-tagged MKK7 was labeled by a XL665-labeled anti-His antibody (FRET acceptor, emission 665 nm). DLK phosphorylates MKK7 at T275/S277, which was detected by an Eu-labeled anti-phospho-MKK7 (T275/S277) antibody (F RET donor, excitation 340 nm). Phosphorylation of MKK7 results in an increased TR-FRET signal (Ratio XL665-channel/Eu-channel) and inhibition of enzymatic activity of DLK decreases the TR-FRET signal.
Assay Protocol for 1536 MTP format: test compounds were predispensed (60 nl) in test plates; +3 μl DLK solution (10 nM DLK, catalytic domain, Carna Biosiences, 0.6 mM DTT in assay buffer); +2 μl substrate solution (15 nM MKK7, LDB; 60 μM ATP; 0.4 mM DTT in assay buffer); 90 min incubation at RT; +2 μl detection mix (5 nM XL665-labeled anti-His antibody, Cisbio; 0.1 nM Eu-labeled anti-phospho-MKK7 (T275/S277), Cisbio/Millipore in detection buffer); 16 h incubation at 37° C.; endpoint measurement BMG (HTRF).
Assay Protocol for 384 low volume MTP format: 1 μl of test compounds were pipetted into test plate; +5 μl DLK solution (10 nM DLK, catalytic domain, Carna Biosiences in assay buffer); +5 μl substrate solution (15 nM MKK7, LDB; 60 μM ATP, in assay buffer); 90 min incubation at RT; +9 μl detection mix (20 nM XL665-labeled anti-His antibody, Cisbio; 0.4 nM Eu-labeled anti-phospho-MKK7 (T275/S277), Cisbio/Millipore in detection buffer); 16 h incubation at 4° C.; endpoint measurement BMG (HTRF).
as §1
Assay buffer (384 format): 50 mM Hepes pH 7.5, 10 mM MgCl2, 1 mM EGTA, 1 mM DTT, 0,01% Triton X-100, 0.01% BSA, 1:500 Smart Block.
as §2

Chain of DLK (Q12852 1-520): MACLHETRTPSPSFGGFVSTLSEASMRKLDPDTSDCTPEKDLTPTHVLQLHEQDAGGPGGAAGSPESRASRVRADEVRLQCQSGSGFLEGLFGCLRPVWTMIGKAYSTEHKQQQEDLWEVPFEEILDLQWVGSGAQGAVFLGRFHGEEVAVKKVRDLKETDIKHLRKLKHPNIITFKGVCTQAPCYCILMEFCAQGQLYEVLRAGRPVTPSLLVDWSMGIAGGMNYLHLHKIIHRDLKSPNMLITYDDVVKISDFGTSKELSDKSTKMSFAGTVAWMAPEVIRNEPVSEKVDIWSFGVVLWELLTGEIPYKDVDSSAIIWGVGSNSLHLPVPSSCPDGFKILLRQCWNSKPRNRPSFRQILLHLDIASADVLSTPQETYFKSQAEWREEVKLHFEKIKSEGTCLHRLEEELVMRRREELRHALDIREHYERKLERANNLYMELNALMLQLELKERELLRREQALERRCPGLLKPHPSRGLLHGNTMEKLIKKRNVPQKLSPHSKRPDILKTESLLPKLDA
Chain of LZK (O43283 168-409): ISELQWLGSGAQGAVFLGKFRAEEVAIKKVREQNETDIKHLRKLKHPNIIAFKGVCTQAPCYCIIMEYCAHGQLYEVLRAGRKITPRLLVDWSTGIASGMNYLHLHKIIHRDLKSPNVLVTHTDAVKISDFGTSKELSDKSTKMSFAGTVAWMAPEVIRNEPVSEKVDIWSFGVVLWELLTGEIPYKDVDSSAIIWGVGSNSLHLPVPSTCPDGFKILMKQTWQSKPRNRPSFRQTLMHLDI

Compound	IC50 (LZK) [nM]	IC50 (DLK) [nM]
CC[C@H](NC(=O)c1cc(-c2cc(C(=O)N[C@@H](C)COC)c3nc(N)nn3c2)cs1)c1ccccc1 [Compound 81]	140	10
CCNC(=O)c1cc(-c2csc(C(=O)N[C@@H](CC)c3ccccc3)c2)cn2nc(N)nc12 [Compound 82]	455	12.5
CC(C)NC(=O)c1cc(-c2csc(C(=O)N[C@@H](C)c3ccc(C(F)(F)F)cc3)c2)cn2nc(N)nc12 [Compound 83]	4200	73
CC[C@H](NC(=O)c1cc(-c2cc(C(=O)NC(C)(C)C)c3nc(N)nn3c2)cs1)c1ccccc1 [Compound 84]	340	19
CC(C)NC(=O)c1cc(-c2csc(C(N)=O)c2)cn2nc(N)nc12 [Compound 85]	900	360
C[C@@H](CO)NC(=O)c1cc(-c2csc(C(N)=O)c2)cn2nc(N)nc12 [Compound 86]	1100	360
CC[C@H](C)NC(=O)c1cc(-c2csc(C(=O)NCc3ccccc3)c2)cn2nc(N)nc12 [Compound 87]	48	11
CC[C@H](C)NC(=O)c1cc(-c2csc(C(=O)N[C@@H](C)c3ccccc3)c2)cn2nc(N)nc12 [Compound 88]	37	3.2
CC[C@H](NC(=O)c1cc(-c2cc(C(=O)N[C@@H](C)CC)c3nc(N)nn3c2)cs1)c1ccccc1 [Compound 89]	51	3.7
Cc1ccc([C@H](C)NC(=O)c2cc(-c3cc(C(=O)NC(C)C)c4nc(N)nn4c3)cs2)cc1 [Compound 90]	490	21
C[C@H](NC(=O)c1cc(-c2cc(C(=O)NC3CCC3)c3nc(N)nn3c2)cs1)c1ccc(C(F)(F)F)cc1 [Compound 92]	2000	55
CC[C@H](C)NC(=O)c1cc(-c2csc(C(=O)NCc3ccc(F)cc3)c2)cn2nc(N)nc12 [Compound 93]	41	11
CC[C@H](C)NC(=O)c1cc(-c2csc(C(=O)N[C@@H](C)c3ccc(F)cc3)c2)cn2nc(N)nc12 [Compound 94, 2-Amino-N-[(2S)-butan-2-yl]-6-(5-{[(1S)-1-(4-fluorophenyl)ethyl]carbamoyl}thiophen-3-yl)[1,2,4]triazolo[1,5-a]pyridine-8-carboxamide]	34	4.75
CC(C)NC(=O)c1cc(-c2csc(C(=O)N[C@@H](C)c3nc4ccccc4o3)c2)cn2nc(N)nc12 [Compound 95]	130	14
CC(C)NC(=O)c1cc(-c2csc(C(=O)N[C@H](C)c3ccccc3)c2)cn2nc(N)nc12 [Compound 97]	140	16
C[C@H](NC(=O)c1cc(-c2cc(C(=O)N[C@H]3CCOC3)c3nc(N)nn3c2)cs1)c1ccc(F)cc1 [Compound 98]	60	7.5
CC(C)NC(=O)c1cc(-c2csc(C(=O)N(C)[C@@H](C)c3ccc(F)cc3)c2)cn2nc(N)nc12 [Compound 99]	2400	330
C[C@H](NC(=O)c1cc(-c2cc(C(=O)N[C@@H](C)CO)c3nc(N)nn3c2)cs1)c1nc2ccccc2o1 [Compound 100]	200	5.8
C[C@H](NC(=O)c1cc(-c2cc(C(=O)N[C@H]3CCOC3)c3nc(N)nn3c2)cs1)c1ccccc1 [Compound 102]	71	4.3
Nc1nc2c(C(=O)N[C@H]3CCOC3)cc(-c3csc(C(=O)NCc4ccccc4)c3)cn2n1 [Compound 103]	160	25
CC[C@H](NC(=O)c1cc(-c2cc(C(=O)N[C@@H]3CCOC3)c3nc(N)nn3c2)cs1)c1ccccc1 [Compound 104]	30.5	1.7
C[C@H](NC(=O)c1cc(-c2cc(C(=O)N[C@H]3CCOC3)c3nc(N)nn3c2)cs1)c1ccc(C(F)(F)F)cc1 [Compound 105]	550	20

Source: patent publication US20230382904A1, “SUBSTITUTED 4-([1,2,4]TRIAZOLO[1,5-a]PYRIDIN-6-YL)THIOPHENE-2-CARBOXAMIDE DERIVATIVES AND USE THEREOF” (The Johns Hopkins University, priority 2020, published 2023)
